# Results published in paper PMC7451048 (Drug metabolism letters, 2019).
# B1: OATP1B1 (Homo sapiens) (protein)
# chain: MDQNQHLNKTAEAQPSENKKTRYCNGLKMFLAALSLSFIAKTLGAIIMKSSIIHIERRFEISSSLVGFIDGSFEIGNLLVIVFVSYFGSKLHRPKLIGIGCFIMGIGGVLTALPHFFMGYYRYSKETNINSSENSTSTLSTCLINQILSLNRASPEIVGKGCLKESGSYMWIYVFMGNMLRGIGETPIVPLGLSYIDDFAKEGHSSLYLGILNAIAMIGPIIGFTLGSLFSKMYVDIGYVDLSTIRITPTDSRWVGAWWLNFLVSGLFSIISSIPFFFLPQTPNKPQKERKASLSLHVLETNDEKDQTANLTNQGKNITKNVTGFFQSFKSILTNPLYVMFVLLTLLQVSSYIGAFTYVFKYVEQQYGQPSSKANILLGVITIPIFASGMFLGGYIIKKFKLNTVGIAKFSCFTAVMSLSFYLLYFFILCENKSVAGLTMTYDGNNPVTSHRDVPLSYCNSDCNCDESQWEPVCGNNGITYISPCLAGCKSSSGNKKPIVFYNCSCLEVTGLQNRNYSAHLGECPRDDACTRKFYFFVAIQVLNLFFSALGGTSHVMLIVKIVQPELKSLALGFHSMVIRALGGILAPIYFGALIDTTCIKWSTNNCGTRGSCRTYNSTSFSRVYLGLSSMLRVSSLVLYIILIYAMKKKYQEKDINASENGSVMDEANLESLNKNKHFVPSAGADSETHC
# Experiments:
# OATP1B1 [1] = details: cited from earlier work
# [2] = system: OCT/PMAT/MATE transporters; details: read-out: IC50 (OCT/PMAT/MATE inhibitor); reported; ref [44]–[47]; cited from earlier work
# OATP4A1 = molecular target: T1, OATP4A1 (Homo sapiens, UniProt Q96BD0); assay: Cellular uptake assay, HEK/OATP4A1 vs HEK empty vector cells; details: model substrate at 5 μM (Fig. S2)
# T1 sequence (Q96BD0 1-722): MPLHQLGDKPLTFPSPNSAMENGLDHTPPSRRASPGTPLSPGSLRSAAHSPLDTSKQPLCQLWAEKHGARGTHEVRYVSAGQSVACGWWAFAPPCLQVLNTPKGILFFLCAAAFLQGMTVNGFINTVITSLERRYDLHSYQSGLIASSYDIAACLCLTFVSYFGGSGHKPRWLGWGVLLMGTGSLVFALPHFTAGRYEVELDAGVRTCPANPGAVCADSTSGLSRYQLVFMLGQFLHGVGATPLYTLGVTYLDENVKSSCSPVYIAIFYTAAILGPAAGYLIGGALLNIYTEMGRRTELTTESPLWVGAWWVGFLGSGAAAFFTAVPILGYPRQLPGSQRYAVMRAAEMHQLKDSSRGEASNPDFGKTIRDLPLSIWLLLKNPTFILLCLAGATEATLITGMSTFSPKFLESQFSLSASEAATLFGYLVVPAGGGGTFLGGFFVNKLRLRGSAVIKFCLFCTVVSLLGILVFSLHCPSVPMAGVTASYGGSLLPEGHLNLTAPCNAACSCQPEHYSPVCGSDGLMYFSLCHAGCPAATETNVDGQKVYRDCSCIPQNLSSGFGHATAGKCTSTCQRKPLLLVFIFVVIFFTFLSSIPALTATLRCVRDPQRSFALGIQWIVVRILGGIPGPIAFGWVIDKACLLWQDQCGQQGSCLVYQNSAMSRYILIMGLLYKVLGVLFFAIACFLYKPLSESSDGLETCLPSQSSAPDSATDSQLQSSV
# OATP2B1 [3] = molecular target: T2, OATP2B1 (Homo sapiens, UniProt O94956); details: model substrate at 5 μM (Fig. S2)
# T2 sequence (O94956 1-709): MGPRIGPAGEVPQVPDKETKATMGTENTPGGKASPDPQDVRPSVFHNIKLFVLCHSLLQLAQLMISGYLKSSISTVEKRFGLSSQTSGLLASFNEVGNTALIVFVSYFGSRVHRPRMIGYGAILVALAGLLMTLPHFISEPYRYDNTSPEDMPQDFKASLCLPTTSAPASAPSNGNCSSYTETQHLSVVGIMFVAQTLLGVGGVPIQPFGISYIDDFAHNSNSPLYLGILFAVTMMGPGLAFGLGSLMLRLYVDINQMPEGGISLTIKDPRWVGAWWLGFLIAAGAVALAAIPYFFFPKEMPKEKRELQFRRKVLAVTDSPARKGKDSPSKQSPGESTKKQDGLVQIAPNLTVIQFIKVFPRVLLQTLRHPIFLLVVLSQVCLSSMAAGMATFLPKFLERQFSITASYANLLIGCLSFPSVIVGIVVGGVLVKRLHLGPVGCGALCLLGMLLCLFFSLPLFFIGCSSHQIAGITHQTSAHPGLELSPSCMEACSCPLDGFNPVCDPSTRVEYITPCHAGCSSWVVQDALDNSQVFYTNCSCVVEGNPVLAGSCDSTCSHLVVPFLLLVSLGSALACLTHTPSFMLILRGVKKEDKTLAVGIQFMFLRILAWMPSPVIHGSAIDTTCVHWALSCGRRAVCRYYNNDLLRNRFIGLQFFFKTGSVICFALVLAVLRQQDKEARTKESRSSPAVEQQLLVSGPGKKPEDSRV
# MRP2 = MRP2 (Homo sapiens, UniProt Q92887); assay: Plasma membrane vesicle transport assay, MRP2 vesicles; details: model substrate at 5 μM (Fig. S5)
# OATP1B3 [4] = molecular target: T3, OATP1B3 (Homo sapiens, UniProt Q9NPD5); details: model substrate at 5 μM (Fig. S2)
# T3 sequence (Q9NPD5 1-702): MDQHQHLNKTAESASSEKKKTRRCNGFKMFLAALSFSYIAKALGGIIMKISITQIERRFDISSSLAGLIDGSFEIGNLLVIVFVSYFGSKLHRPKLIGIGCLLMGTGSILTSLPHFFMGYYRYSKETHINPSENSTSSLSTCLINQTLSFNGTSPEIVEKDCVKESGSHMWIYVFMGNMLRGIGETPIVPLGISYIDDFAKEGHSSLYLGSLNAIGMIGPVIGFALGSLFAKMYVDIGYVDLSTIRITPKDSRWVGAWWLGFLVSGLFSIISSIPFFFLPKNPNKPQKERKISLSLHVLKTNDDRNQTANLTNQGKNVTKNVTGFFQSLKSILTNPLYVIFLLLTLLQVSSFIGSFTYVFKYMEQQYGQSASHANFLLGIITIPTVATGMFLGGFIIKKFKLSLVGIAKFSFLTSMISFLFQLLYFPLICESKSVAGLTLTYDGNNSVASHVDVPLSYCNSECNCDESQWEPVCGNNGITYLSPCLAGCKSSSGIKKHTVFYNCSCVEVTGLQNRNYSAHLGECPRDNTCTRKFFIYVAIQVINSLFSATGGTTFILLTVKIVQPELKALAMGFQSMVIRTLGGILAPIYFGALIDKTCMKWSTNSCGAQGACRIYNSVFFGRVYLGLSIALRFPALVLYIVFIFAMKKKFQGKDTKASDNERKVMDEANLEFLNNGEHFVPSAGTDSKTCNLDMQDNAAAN
# BCRP = molecular target: T4, BCRP (Homo sapiens, UniProt Q9UNQ0); assay: Plasma membrane vesicle transport assay, BCRP vesicles; format: in vitro ADME; details: model substrate at 5 μM (Fig. S5)
# T4 sequence (Q9UNQ0 1-655): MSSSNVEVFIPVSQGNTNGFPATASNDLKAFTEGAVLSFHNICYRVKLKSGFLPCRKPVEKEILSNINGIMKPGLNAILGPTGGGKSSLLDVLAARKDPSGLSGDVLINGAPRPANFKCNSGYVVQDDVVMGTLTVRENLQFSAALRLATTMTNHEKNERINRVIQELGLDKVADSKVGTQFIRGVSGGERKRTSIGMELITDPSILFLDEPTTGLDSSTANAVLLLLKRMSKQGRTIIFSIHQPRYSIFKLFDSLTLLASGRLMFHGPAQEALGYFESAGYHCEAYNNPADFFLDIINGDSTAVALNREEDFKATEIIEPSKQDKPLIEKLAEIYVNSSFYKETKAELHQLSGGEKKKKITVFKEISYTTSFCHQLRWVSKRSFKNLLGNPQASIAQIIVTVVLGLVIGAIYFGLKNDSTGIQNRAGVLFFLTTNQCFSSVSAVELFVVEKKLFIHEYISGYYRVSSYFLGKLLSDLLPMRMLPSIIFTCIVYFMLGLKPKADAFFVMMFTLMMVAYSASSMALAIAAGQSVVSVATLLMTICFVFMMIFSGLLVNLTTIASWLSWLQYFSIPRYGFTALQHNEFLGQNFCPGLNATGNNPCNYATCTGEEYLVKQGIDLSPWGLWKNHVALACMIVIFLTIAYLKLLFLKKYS
# OATP1B1 [5] = molecular target: T5, OATP1B1 (Homo sapiens, UniProt Q9Y6L6); details: model substrate at 5 μM (Fig. S2)
# T5 sequence (Q9Y6L6 1-691): B1 chain
# OATP2B1 [6] = details: read-out: IC50 for OATP2B1; reported; ref [22], [41]–[43]; cited from earlier work
# OATP1B3 [7] = details: read-out: IC50 for OATP1B3; reported; ref [22], [41]–[43]; cited from earlier work
# OCT1 = molecular target: T6, OCT1 (Homo sapiens, UniProt O15245); assay: Cellular uptake assay, HEK/OCT1 vs HEK empty vector cells; details: model substrate (Fig. S2)
# T6 sequence (O15245 1-554): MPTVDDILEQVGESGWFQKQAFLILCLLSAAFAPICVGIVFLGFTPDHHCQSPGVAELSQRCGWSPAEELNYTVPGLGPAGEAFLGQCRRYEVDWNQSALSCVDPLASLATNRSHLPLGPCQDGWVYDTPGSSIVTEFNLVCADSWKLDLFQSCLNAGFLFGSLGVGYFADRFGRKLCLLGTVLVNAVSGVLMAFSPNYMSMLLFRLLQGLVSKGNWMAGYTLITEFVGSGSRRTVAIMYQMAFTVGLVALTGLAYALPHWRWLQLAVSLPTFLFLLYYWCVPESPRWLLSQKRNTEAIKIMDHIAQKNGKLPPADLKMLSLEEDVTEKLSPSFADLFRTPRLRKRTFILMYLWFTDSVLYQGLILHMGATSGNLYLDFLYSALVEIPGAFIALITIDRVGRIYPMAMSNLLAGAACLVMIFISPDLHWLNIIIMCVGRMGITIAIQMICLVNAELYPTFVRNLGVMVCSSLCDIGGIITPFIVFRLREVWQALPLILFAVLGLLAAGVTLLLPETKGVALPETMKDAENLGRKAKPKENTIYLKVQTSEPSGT
# OAT = details: read-out: IC50 (OAT inhibitor); reported; ref [44]–[47]; cited from earlier work
# [8] = substrate: CC(NC(C)(C)C)C(=O)c1cccc(Cl)c1
# MRP2, sequence (Q92887 whole entry): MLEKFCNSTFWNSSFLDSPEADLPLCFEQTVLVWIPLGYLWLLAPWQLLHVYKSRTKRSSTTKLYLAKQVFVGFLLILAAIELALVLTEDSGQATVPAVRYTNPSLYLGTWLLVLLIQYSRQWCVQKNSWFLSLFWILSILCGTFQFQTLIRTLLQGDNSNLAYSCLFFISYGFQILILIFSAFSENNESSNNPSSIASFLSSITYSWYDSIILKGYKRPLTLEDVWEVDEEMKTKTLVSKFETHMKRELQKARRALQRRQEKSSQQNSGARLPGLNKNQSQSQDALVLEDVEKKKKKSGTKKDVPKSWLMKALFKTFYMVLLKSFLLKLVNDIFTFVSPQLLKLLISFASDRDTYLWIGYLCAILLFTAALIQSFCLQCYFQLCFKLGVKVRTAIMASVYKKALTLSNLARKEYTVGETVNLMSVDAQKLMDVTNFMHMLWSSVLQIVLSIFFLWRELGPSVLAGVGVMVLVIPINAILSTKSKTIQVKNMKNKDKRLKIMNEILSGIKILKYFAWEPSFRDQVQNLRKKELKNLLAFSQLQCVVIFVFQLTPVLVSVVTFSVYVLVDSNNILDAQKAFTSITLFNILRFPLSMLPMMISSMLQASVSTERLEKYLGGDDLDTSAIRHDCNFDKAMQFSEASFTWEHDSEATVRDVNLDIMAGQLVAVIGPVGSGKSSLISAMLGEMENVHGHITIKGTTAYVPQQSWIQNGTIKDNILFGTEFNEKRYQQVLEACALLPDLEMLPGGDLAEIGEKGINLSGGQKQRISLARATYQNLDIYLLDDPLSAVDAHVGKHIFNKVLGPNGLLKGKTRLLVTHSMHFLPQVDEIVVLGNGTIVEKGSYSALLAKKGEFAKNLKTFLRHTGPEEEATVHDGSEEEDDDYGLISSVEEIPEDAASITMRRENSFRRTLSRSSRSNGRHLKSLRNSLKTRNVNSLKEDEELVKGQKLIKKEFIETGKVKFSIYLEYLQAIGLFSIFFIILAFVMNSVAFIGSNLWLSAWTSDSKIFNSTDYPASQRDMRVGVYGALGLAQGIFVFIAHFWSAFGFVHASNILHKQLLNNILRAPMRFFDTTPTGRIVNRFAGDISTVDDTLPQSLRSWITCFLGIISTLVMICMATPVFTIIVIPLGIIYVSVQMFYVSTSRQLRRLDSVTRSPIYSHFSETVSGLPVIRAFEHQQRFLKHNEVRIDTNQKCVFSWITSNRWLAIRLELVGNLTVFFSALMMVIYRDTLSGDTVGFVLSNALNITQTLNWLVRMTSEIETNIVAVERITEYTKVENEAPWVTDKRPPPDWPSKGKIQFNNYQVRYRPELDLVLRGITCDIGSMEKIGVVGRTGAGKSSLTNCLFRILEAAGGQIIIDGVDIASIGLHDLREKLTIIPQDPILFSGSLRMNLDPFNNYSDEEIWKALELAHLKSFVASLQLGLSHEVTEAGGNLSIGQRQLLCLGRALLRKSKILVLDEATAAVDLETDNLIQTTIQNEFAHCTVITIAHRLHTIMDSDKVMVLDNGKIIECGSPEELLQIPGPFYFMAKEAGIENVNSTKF
molecule,measurement,setting,value
COC(=O)[C@H](c1ccccc1Cl)N1CCc2sccc2C1 [Clopidogrel],Inhibition of OATP1B1,OATP1B1 [1]; ref [26],effective inhibitor
"CCN1/C(=C/c2ccc3ccccc3[n+]2CC)C=Cc2ccccc21 [D-22, Decynium-22]",IC50,[2],13800 to 21900 nM
"C[C@]12CC[C@@H]3c4ccc(OS(=O)(=O)O)cc4CC[C@H]3[C@@H]1CCC2=O [E1-3-S, Estrone-3-sulfate, reference compound]",Uptake into HEK/OATP4A1 cells relative to HEK vector control cells,OATP4A1,20 times
same,Uptake into HEK/OATP2B1 cells relative to HEK vector control cells,OATP2B1 [3],42 times
"C[C@]12CC[C@@H]3c4ccc(O)cc4CC[C@H]3[C@@H]1CC[C@@H]2O[C@@H]1O[C@H](C(=O)O)[C@@H](O)[C@H](O)[C@H]1O [E2-17β-G, estradiol-17β-glucuronide, reference compound]",Uptake into MRP2 vesicles in the presence of ATP relative to AMP,MRP2,10–100 times
same,Uptake into CHO/OATP1B3 cells relative to CHO wild-type parent cells,OATP1B3 [4],~2 times
same,Uptake into BCRP vesicles in the presence of ATP relative to AMP,BCRP,10–100 times
same,Uptake into CHO/OATP1B1 cells relative to CHO wild-type parent cells,OATP1B1 [5],approximately 6 times
"CO[C@H]1/C=C/O[C@@]2(C)Oc3c(C)c(O)c4c(O)c(c(/C=N/N5CCN(C)CC5)c(O)c4c3C2=O)NC(=O)/C(C)=C\C=C\[C@H](C)[C@H](O)[C@@H](C)[C@@H](O)[C@@H](C)[C@H](OC(C)=O)[C@@H]1C [RIF, Rifampin]",IC50,OATP2B1 [6],2100 nM
same,IC50,"OATP1B1 [1]; read-out: IC50 for OATP1B1, reported, ref [22], [41]–[43]",1500 to 3250 nM
same,IC50,OATP1B3 [7],1500 to 2600 nM
"C[n+]1ccc(-c2ccccc2)cc1 [[^3H]-MPP^+, reference compound]",Uptake into OCT1-overexpressing cells relative to vector control cells,OCT1,15 times
CCCN(CCC)S(=O)(=O)c1ccc(C(=O)O)cc1 [probenecid],IC50,OAT,3100 to 7400 nM
B1,Km,[8],31 ± 7 µM
same,Vmax,[8],1407±91 pmol/mg protein/min
